Here are results for three compounds from US20080312287A1, “Compound and Methods For the Treatment of Cancer and Malaria” (University of Washington, priority 2005, published 2008).

As a reminder, the inhibition is the relative decrease from the control value, in per cent. As a reminder, the IC50 is the point on the concentration scale where inhibition reaches its midpoint. A higher IC50 goes with a need for much substance. One may read the Tmax as the time at which the peak concentration occurs. One may read the Cmax as the highest concentration seen after dosing.

One data set concerns P. falciparum 3D7. Briefly: P. falciparum ED50 determination, [3H]-hypoxanthine incorporation, strain 3D7. As to conditions: Plasmodium falciparum, 3D7, strain 3D7; concentration decreasing hypoxanthine incorporation into parasites twofold; read-out: ED50 3D7. In kind it is cell-based, Plasmodium falciparum. In a few lines: (§1)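 Cultures at 0.5% parasitemia and 0.5% hematocrit, in RPMI with 20% human A+ plasma, were exposed to compound for 48 h at 37° C under 5% CO2/5% O2. [3H]-hypoxanthine was then added for 24 h more. Incorporation, corrected for uninfected erythrocytes and normalised to DMSO wells, gave ED50 by linear regression.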

Data set [1] can be described thus: Liver microsome metabolism (mouse). The following applies: female. For orientation: Liver microsomes are a subcellular fraction often used to study metabolism.
Experimental: (§2) Microsome metabolism. Liver microsome metabolism assays were performed with female pooled microsomes from BD Biosciences (20 mg/mL). Reaction wells containing: phosphate buffer (232 μL, 0.6 M), MgCl2 (12.0 μL, 0.1 M), EDTA (0.8 μL, 0.5 M), 10x NADPH regenerating system (40.0 μL), Glucoide-6-phosphate deghydrogenase (0.8 μL, 500 U/mL), milliq water (267.8 μL), and liver microsomes (10.0 μL, 20 mg/mL) were heated at 37° C. for 10 mins. To each reaction well was added inhibitor (200 μM, 2.0 μL) in DMSO. Reaction vessels were quenched with acetonitrile (75 μL) and internal standard at designated time points, and the sample immediately frozen (−20° C.). Metabolites and unreacted inhibitor were quantified by mass spectral analysis.
The next data set concerns the target T1, PfPFT (Plasmodium falciparum, UniProt Q8I503+Q8IHP6).
T1 sequence (Q8I503 1-521): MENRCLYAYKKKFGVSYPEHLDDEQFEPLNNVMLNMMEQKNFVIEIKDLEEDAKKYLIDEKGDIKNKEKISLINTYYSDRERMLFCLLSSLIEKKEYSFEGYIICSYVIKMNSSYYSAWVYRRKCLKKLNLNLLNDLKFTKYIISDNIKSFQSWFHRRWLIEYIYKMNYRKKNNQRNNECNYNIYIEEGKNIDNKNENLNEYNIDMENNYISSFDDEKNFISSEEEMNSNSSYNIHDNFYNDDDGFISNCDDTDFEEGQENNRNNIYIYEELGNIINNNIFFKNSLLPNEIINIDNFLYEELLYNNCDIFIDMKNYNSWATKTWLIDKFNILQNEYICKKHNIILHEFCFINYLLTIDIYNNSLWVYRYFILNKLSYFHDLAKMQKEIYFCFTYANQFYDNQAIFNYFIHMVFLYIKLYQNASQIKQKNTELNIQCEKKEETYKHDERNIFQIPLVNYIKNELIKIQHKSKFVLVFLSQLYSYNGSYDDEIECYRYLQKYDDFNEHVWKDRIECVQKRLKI
T1 sequence (Q8IHP6 1-923): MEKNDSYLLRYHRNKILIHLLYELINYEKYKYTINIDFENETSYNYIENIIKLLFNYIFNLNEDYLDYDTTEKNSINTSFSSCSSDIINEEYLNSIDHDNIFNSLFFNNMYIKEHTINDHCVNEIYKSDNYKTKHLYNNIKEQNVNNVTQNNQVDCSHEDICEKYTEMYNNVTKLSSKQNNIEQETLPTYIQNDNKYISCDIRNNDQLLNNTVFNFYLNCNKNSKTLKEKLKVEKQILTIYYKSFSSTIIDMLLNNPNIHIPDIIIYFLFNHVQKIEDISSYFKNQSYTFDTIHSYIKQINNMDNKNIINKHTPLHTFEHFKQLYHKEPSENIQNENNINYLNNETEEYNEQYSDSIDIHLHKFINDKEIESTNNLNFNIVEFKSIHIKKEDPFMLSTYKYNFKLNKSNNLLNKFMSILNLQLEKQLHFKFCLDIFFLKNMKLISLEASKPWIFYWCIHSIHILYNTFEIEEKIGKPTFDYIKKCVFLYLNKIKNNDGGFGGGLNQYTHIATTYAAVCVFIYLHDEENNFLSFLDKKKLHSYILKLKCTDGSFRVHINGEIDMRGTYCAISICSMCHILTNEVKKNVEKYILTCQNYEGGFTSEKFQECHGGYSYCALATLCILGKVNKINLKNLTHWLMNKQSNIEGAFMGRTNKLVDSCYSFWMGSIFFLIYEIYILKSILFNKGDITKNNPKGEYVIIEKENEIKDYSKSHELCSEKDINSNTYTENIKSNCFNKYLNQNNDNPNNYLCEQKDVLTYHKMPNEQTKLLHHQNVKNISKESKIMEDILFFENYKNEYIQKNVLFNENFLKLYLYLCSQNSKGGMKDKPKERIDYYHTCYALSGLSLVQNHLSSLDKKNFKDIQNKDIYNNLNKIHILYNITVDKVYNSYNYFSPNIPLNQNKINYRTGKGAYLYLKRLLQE
Briefly: PfPFT inhibition, scintillation proximity assay with partially purified PfPFT. As to conditions: for Selectivity: ratio of rat to Plasmodium PFT activity; for inhibition at 0.005 µM: read-out: % Inhibition of PfPFT at 5 nM, inhibitor at 5 nM; for inhibition at 0.05 µM: read-out: % Inhibition of PfPFT at 50 nM, inhibitor at 50 nM. In kind it is biochemical.

For the next data set, the system named is P. falciparum K1. Briefly: P. falciparum ED50 determination, [3H]-hypoxanthine incorporation, strain K1. The data set is classed as cell-based, Plasmodium falciparum. The following applies: concentration decreasing hypoxanthine incorporation into parasites twofold, read-out: ED50 K1. A digest of the protocol:
as §1

In a further data set the target is Rat FTase (Rattus norvegicus, UniProt Q02293+Q04631). Briefly: Rat farnesyltransferase IC50 determination. In kind it is biochemical. The following applies: concentration decreasing transferase activity twofold.
Data set [2] is described as follows: Oral availability in rats, inhibitor concentration in plasma. The data set is classed as in vivo. As to conditions: rat, plasma.
Data set [3] is described as follows: Oral availability in mice, inhibitor concentration in plasma. The data set is classed as in vivo.
A short description of data set [4]: Liver microsome metabolism (rat). The following applies: female, microsomes.
Experimental: as §2
A further data set relates to Caco-2 cells. Description: Caco-2 apparent permeability. As to conditions: apparent permeability coefficient. An excerpt:
Absorption. Caco-2 cells cultured on a semi-permeable membrane form a highly functionalized epithelial barrier, with remarkable similarity to small intestinal epithelial cells, including high levels of brush border hydrolases and well developed junctional complexes.

The mark [5] stands for this setting: Plasmodium falciparum, K1, strain K1.

Each structure is given as a SMILES string. Like-named read-outs stand apart in the source and are kept apart here.

On to `Cn1cnc(S(=O)(=O)N(CCN(Cc2cncn2C)c2ccc(C#N)cc2)Cc2ccc(-c3ccccc3)cc2)c1` [Compound 8ag, 1-Methyl-1H-imidazole-4-sulfonic acid biphenyl-4-ylmethyl-{2-[(4-cyano-phenyl)-(3-methyl-3H-imidazol-4-ylmethyl)-amino]-ethyl}-amide], for which, in the data set on P. falciparum 3D7, the EC50 came to 700 nM. The compound further gave a half-life at 0.71 µM in data set [1] (liver microsomes, Microsome t1/2, Mouse, mouse liver microsomes) of under 4 min. Besides, at PfPFT, the Selectivity came to 3.7, the inhibition at 0.005 µM was 10% and the inhibition at 0.05 µM was found to be 19%. The EC50 in the data set with P. falciparum K1 (setting [5]) turned out to be 2500 nM. On Rat FTase, this compound gave a concentration for half-maximal inhibition (IC50) of 880 nM.

As to `Cn1cnc(S(=O)(=O)N(CCN(Cc2cncn2C)c2ccc(C#N)cc2)Cc2ccccc2)c1` [Compound 8d, 1-Methyl-1H-imidazole-4-sulfonic acid benzyl-{2-[(4-cyano-phenyl)-(3-methyl-3H-imidazol-4-ylmethyl)-amino]-ethyl}-amide], the half-life in data set [2] (12.5 mg, oral gavage, rats, elimination half life, read-out: Oral Availability t1/2 (rats)) is 96 min. Also, the time of peak concentration (Tmax) in [2] (oral administration to rats 12.5 mg) was 30 min. Moreover, the peak level in data set [2] (oral gavage, rats 12.5 mg in 90% saline, 3% ethanol, 7% tween) (Cmax) was 740 nM. The EC50 with P. falciparum 3D7 was 349 nM; with P. falciparum K1 (setting [5]) it was 375 nM; with P. falciparum K1 (strain K1) it was 367 nM. The half-life at 0.71 µM turned out to be 9 min in [1] (microsomes) and 18 min in data set [4]. Further, the “Oral Availability in Mice AUC” value in [3] (mouse, in vivo, po, 1 mg) was determined as 112.0 µM·min. Also, the “Oral Availability in Mice t1/2” value in [3] (oral gavage, mice 1 mg, elimination half life) was 95.9 min. Besides, on PfPFT, the inhibition at 0.005 µM is 86%. Also, the inhibition at 0.05 µM at PfPFT was found to be 98%. The compound further showed an IC50 on Rat FTase of 25 nM.

As to `Cn1cnc(S(=O)(=O)N(CCN(Cc2cncn2C)c2ccc(C#N)cc2)CC2CCCCC2)c1` [Compound 8q, 1-Methyl-1H-imidazole-4-sulfonic acid {2-[(4-cyano-phenyl)-(3-methyl-3H-imidazol-4-ylmethyl)-amino]-ethyl}-cyclohexylmethyl-amide], in the data set with Caco-2 cells, the CaCo is 1.5 cm · s^−1 × 10^−6. Also, the EC50 with P. falciparum 3D7 was 220 nM. The same compound had a half-life at 0.71 µM in [1] (microsomes) of under 5 min. At PfPFT, the Selectivity was determined as 1.7, the inhibition at 0.005 µM worked out at 63% and the inhibition at 0.05 µM is 93%. Besides, the EC50 in the data set on P. falciparum K1 (setting [5]) is 850 nM. Moreover, the half-life at 0.71 µM in [4] was determined as 4 min. The same compound had an IC50 against Rat FTase of 7.5 nM.
